Consider 24 molecules from patent US9216999B2, “Substituted pyrrolo[2,3-h][1,6]naphthyridines and compositions thereof as JAK inhibitors” (priority 2011, dated 2015).

Where two headings read alike, the source gives them in different places.

Holding throughout (format): biochemical
The target in one assay is JAK2 (Homo sapiens (Human), UniProt O60674). In words: Enzyme assay (Assay Example^a 1), JAK2. To be noted: ATP 100 μM.
A further assay deals with Tyk2 (Homo sapiens (Human), UniProt P29597). As to the kind of experiment: Enzyme assay (Assay Example^a 1), Tyk2. The conditions noted are these: ATP 100 μM.
Chain of Tyk2 (P29597 whole entry): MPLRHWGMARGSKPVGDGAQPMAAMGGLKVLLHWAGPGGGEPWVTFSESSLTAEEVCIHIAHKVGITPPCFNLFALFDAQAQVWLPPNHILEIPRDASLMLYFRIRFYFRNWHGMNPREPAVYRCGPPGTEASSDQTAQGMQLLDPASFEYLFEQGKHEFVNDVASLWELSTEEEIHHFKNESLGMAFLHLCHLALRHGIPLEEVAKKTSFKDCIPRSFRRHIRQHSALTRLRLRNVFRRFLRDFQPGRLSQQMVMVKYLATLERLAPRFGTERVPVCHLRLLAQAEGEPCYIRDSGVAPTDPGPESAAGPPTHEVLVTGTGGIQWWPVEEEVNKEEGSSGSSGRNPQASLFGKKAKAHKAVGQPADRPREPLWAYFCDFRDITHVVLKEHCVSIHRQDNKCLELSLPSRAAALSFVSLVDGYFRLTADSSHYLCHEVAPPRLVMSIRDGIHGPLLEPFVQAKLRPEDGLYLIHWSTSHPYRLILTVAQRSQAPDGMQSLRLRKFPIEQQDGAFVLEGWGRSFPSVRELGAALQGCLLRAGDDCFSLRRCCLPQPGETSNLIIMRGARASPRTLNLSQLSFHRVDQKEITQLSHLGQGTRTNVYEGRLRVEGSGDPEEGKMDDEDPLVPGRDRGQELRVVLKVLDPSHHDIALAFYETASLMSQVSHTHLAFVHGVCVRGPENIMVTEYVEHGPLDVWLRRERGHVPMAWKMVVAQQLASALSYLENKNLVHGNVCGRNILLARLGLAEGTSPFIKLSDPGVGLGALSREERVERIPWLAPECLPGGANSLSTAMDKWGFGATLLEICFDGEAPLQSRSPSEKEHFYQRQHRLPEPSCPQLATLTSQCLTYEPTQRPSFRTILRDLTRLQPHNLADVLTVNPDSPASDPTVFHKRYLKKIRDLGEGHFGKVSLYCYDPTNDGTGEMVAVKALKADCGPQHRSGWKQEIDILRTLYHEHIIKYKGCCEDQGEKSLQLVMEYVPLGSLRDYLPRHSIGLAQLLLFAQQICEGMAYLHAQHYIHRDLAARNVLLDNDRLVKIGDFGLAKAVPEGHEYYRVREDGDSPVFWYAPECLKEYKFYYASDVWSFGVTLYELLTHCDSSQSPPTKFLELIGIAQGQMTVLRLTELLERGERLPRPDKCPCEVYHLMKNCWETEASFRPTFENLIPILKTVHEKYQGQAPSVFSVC
For a further assay, the target named is JAK3 (Homo sapiens (Human), UniProt P52333). As to the kind of experiment: Enzyme assay (Assay Example^a 1), JAK3.
Chain of JAK3 (P52333 whole entry): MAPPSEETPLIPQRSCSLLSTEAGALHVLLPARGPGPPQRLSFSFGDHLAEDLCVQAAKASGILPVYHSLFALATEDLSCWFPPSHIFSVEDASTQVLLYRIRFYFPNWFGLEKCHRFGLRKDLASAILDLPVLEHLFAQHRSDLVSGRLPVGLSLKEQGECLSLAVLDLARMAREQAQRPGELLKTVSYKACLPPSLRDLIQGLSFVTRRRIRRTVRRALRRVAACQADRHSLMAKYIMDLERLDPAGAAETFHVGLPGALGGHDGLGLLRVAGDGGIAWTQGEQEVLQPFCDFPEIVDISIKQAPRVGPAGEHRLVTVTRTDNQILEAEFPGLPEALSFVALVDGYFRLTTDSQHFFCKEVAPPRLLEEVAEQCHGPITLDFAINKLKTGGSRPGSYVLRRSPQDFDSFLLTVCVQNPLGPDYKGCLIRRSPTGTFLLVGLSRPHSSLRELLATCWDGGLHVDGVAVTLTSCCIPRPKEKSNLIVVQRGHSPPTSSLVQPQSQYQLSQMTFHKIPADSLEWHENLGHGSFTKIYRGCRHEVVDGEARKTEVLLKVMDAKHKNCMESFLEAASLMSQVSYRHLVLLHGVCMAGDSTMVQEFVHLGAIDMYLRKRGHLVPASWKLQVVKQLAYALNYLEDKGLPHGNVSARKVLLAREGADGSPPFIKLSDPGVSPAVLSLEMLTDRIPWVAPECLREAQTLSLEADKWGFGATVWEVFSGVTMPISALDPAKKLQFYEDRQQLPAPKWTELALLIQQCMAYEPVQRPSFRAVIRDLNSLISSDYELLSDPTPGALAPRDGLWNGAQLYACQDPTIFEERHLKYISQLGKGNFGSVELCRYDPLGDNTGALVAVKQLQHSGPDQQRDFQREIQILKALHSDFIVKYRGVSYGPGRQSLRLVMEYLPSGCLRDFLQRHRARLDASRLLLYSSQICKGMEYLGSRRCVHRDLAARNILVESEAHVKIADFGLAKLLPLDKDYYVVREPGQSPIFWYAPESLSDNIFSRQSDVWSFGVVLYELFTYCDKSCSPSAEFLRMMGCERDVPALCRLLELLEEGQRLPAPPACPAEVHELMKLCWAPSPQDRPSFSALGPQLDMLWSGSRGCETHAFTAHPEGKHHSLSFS
The target in another assay is JAK1 (Homo sapiens (Human), UniProt P23458). In words: Enzyme assay (Assay Example^a 1), JAK1. To be noted: ATP 100 μM.

Broadly, the IC50 is the concentration that inhibits the measured activity by half.

For `N#CC1CN(C(=O)[C@H]2CC[C@H](c3nnn4cnc5[nH]ccc5c34)CC2)C1` [compound 363, 1-[trans-4-(7H-pyrrolo[3,2-e][1,2,3]triazolo[1,5-c]pyrimidin-1-yl)cyclohexanecarbonyl]azetidine-3-carbonitrile], the IC50 against JAK2 was 0.29 µM; on Tyk2, > 1 µM; on JAK3 (ATP 100 μM) it was > 1 µM; against JAK1, 0.044 µM.
For `CC1(O)CN(C[C@H]2CC[C@H](c3nnn4cnc5[nH]ccc5c34)CC2)C1` [compound 422, 1-{[trans-4-(7H-pyrrolo[3,2-e][1,2,3]triazolo[1,5-c]pyrimidin-1-yl)cyclohexyl]methyl}-3-methylazetidin-3-ol], the concentration for half-maximal inhibition (IC50) against JAK2 is 0.051 µM; on Tyk2 it was 0.13 µM; against JAK3 (ATP 100 μM), > 1 µM; at JAK1, 0.0028 µM.
Regarding `c1cc2c(ncn3nnc(C4CCN(Cc5cnc(N6CCOCC6)s5)CC4)c23)[nH]1` [compound 234, 4-(5-{[4-(7H-pyrrolo[3,2-e][1,2,3]triazolo[1,5-c]pyrimidin-1-yl)piperidin-1-yl]methyl}thiazol-2-yl)morpholine], the IC50 is 0.88 µM at JAK2, > 1 µM against Tyk2, > 1 µM on JAK3 (ATP 100 μM) and 0.36 µM against JAK1.
Take `O=C(Nc1ccc(F)cc1)[C@H]1CC[C@H](c2nnn3cnc4[nH]ccc4c23)CC1` [compound 206, trans-N-(4-Fluorophenyl)-4-(7H-pyrrolo[3,2-e][1,2,3]triazolo[1,5-c]pyrimidin-1-yl)cyclohexanecarboxamide]: the IC50 is > 1 µM at JAK2 (Table^a 154); > 1 µM at Tyk2 (Table^a 154); > 1 µM against JAK3 (ATP 100 μM, Table^a 154); 0.27 µM against JAK1 (Table^a 154).
With `c1cc2c(ncn3nnc(C4CCN(Cc5cocn5)CC4)c23)[nH]1` [compound 219, 4-{[4-(7H-pyrrolo[3,2-e][1,2,3]triazolo[1,5-c]pyrimidin-1-yl)piperidin-1-yl]methyl}oxazole], the concentration for half-maximal inhibition (IC50) at JAK2 turned out to be 0.081 µM; on Tyk2, 0.97 µM; against JAK3 (ATP 100 μM) it was 0.62 µM; on JAK1, 0.039 µM.
In the same order, the values of `OCCN1CCN(C[C@H]2CC[C@H](c3nnn4cnc5[nH]ccc5c34)CC2)CC1` [compound 315, 2-(4-{[trans-4-(7H-pyrrolo[3,2-e][1,2,3]triazolo[1,5-c]pyrimidin-1-yl)cyclohexyl]methyl}piperazin-1-yl)ethanol] are 0.2 µM, 0.53 µM, > 1 µM and 0.01 µM.
`c1cc2c(ncn3nnc([C@H]4CC[C@H](CNC5CCC5)CC4)c23)[nH]1` [compound 283, N-{[trans-4-(7H-pyrrolo[3,2-e][1,2,3]triazolo[1,5-c]pyrimidin-1-yl)cyclohexyl]methyl}cyclobutanamine]: the IC50 on JAK2 came out at 0.11 µM; at Tyk2, 0.23 µM; against JAK3 (ATP 100 μM) it was 0.9 µM; on JAK1 it was 0.014 µM.
As to `CN(C)[C@@H]1CCN(C[C@H]2CC[C@H](c3nnn4cnc5[nH]ccc5c34)CC2)C1` [compound 340, (R)-1-{[trans-4-(7H-pyrrolo[3,2-e][1,2,3]triazolo[1,5-c]pyrimidin-1-yl)cyclohexyl]methyl}-N,N-dimethylpyrrolidin-3-amine], the half-maximal inhibitory concentration (IC50) was 0.23 µM against JAK2, > 1 µM on Tyk2, > 1 µM on JAK3 (ATP 100 μM) and 0.021 µM against JAK1.
With `O=S(=O)(O)C[C@H]1CC[C@H](c2nnn3cnc4[nH]ccc4c23)CC1` [compound 416, [trans-4-(7H-Pyrrolo[3,2-e][1,2,3]triazolo[1,5-c]pyrimidin-1-yl)cyclohexyl]methanesulfonic acid], the IC50 was 0.047 µM against JAK2, 0.68 µM at Tyk2, > 1 µM against JAK3 (ATP 100 μM) and 0.029 µM at JAK1.
Turning to `c1cc2c(ncn3nnc([C@H]4CC[C@H](NCC5CC5)CC4)c23)[nH]1` [396b, trans-N-(cyclopropylmethyl)-4-(7H-pyrrolo[3,2-e][1,2,3]triazolo[1,5-c]pyrimidin-1-yl)cyclohexanamine], the IC50 at JAK2 was 0.19 µM; on Tyk2, 0.71 µM; against JAK3 (ATP 100 μM), > 1 µM; against JAK1, 0.022 µM.
For `O[C@H]1Cc2ccccc2[C@H]1NC1CCC(c2nnn3cnc4[nH]ccc4c23)CC1` (mixture of isomers) [compound 378, (1R,2S)-1-{[4-(7H-pyrrolo[3,2-e][1,2,3]triazolo[1,5-c]pyrimidin-1-yl)cyclohexyl]amino}-2,3-dihydro-1H-inden-2-ol] the same measures were 0.071 µM, 0.2 µM, 0.41 µM and 0.004 µM.
For `Brc1csc(CN2CCC(c3nnn4cnc5[nH]ccc5c34)CC2)c1` [compound 237, 1-{1-[(4-bromothiophen-2-yl)methyl]piperidin-4-yl}-7H-pyrrolo[3,2-e][1,2,3]triazolo[1,5-c]pyrimidine], the IC50 was 0.01 µM against JAK2, > 1 µM against Tyk2, 0.41 µM against JAK3 (ATP 100 μM) and 0.0015 µM against JAK1.
With `FC(F)(F)C1CCC(N2CCC(c3nnn4cnc5[nH]ccc5c34)CC2)CC1` (single isomer, unassigned) [56a], the IC50 is > 1 µM at JAK2 (Table^a 154); > 1 µM at Tyk2 (Table^a 154); > 1 µM against JAK3 (ATP 100 μM, Table^a 154); 0.5 µM against JAK1 (Table^a 154).
Regarding `Brc1ccc(CN2CCC(c3nnn4cnc5[nH]ccc5c34)CC2)s1` [compound 238, 1-{1-[(5-bromothiophen-2-yl)methyl]piperidin-4-yl}-7H-pyrrolo[3,2-e][1,2,3]triazolo[1,5-c]pyrimidine], the concentration for half-maximal inhibition (IC50) at JAK2 turned out to be 0.0046 µM; on Tyk2 it was 0.11 µM; against JAK3 (ATP 100 μM) it was 0.055 µM; against JAK1, 0.00079 µM.
For the molecule `FC(F)(F)CN(CC1CC1)C[C@H]1CC[C@H](c2nnn3cnc4[nH]ccc4c23)CC1` [compound 415, N-{[trans-4-(7H-pyrrolo[3,2-e][1,2,3]triazolo[1,5-c]pyrimidin-1-yl)cyclohexyl]methyl}-N-(cyclopropylmethyl)-2,2,2-trifluoroethanamine], the 50% inhibitory concentration (IC50) was 0.095 µM on JAK2, > 1 µM on Tyk2, > 1 µM against JAK3 (ATP 100 μM) and 0.03 µM against JAK1.
On to `Brc1cc(CN2CCC(c3nnn4cnc5[nH]ccc5c34)CC2)sc1Br` [compound 233, 1-{1-[(4,5-dibromothiophen-2-yl)methyl]piperidin-4-yl}-7H-pyrrolo[3,2-e][1,2,3]triazolo[1,5-c]pyrimidine], for which the IC50 against JAK2 is 0.071 µM; against Tyk2, > 1 µM; against JAK3, > 1 µM; at JAK1, 0.021 µM.
In the case of `Cc1ccc(CNC[C@H]2CC[C@H](c3nnn4cnc5[nH]ccc5c34)CC2)o1` [compound 182, 1-[trans-4-(7H-pyrrolo[3,2-e][1,2,3]triazolo[1,5-c]pyrimidin-1-yl)cyclohexyl]-N-[(5-methylfuran-2-yl)methyl]methanamine], the concentration for half-maximal inhibition (IC50) against JAK2 (Table^a 154) worked out at 0.039 µM; at Tyk2 (Table^a 154) it was 0.016 µM; against JAK3 (ATP 100 μM, Table^a 154), 0.28 µM; on JAK1 (Table^a 154) it was 0.0054 µM.
`CC(C#N)[C@H]1CC[C@@H](c2nnn3cnc4[nH]ccc4c23)CC1` (stereo partly drawn) [439a, 2-[cis-4-(7H-Pyrrolo[3,2-e][1,2,3]triazolo[1,5-c]pyrimidin-1-yl)cyclohexyl]propanenitrile]: the IC50 is 0.34 µM against JAK2, > 1 µM against Tyk2, > 1 µM at JAK3 (ATP 100 μM) and 0.13 µM against JAK1.
With `Clc1ccc(CCNC[C@H]2CC[C@H](c3nnn4cnc5[nH]ccc5c34)CC2)cc1` [compound 178, N-{[trans-4-(7H-pyrrolo[3,2-e][1,2,3]triazolo[1,5-c]pyrimidin-1-yl)cyclohexyl]methyl}-2-(4-chlorophenyl)ethanamine], the IC50 against JAK2 (Table^a 154) turned out to be 0.024 µM; at Tyk2 (Table^a 154) it was 0.053 µM; against JAK3 (ATP 100 μM, Table^a 154), 0.17 µM; on JAK1 (Table^a 154) it was 0.0026 µM.
`N#CCNC(=O)C[C@H]1CC[C@H](c2nnn3cnc4[nH]ccc4c23)CC1` [443b, 2-[trans-4-(7H-Pyrrolo[3,2-e][1,2,3]triazolo[1,5-c]pyrimidin-1-yl)cyclohexyl]-N-(cyanomethyl)acetamide]: the half-maximal inhibitory concentration (IC50) against JAK2 is 0.03 µM; on Tyk2 it was > 1 µM; against JAK3 (ATP 100 μM) it was 0.34 µM; at JAK1, 0.01 µM.
With `CN(C)[C@H]1CC[C@H](c2nnn3cnc4[nH]ccc4c23)CC1` [397b, trans-N,N-dimethyl-4-(7H-pyrrolo[3,2-e][1,2,3]triazolo[1,5-c]pyrimidin-1-yl)cyclohexanamine], the 50% inhibitory concentration (IC50) against JAK2 is 0.21 µM; at Tyk2, 0.8 µM; against JAK3 (ATP 100 μM), > 1 µM; on JAK1 it was 0.023 µM.
As for `OC[C@H]1CCCN1C[C@H]1CC[C@H](c2nnn3cnc4[nH]ccc4c23)CC1` [compound 265, ((R)-1-{[trans-4-(7H-pyrrolo[3,2-e][1,2,3]triazolo[1,5-c]pyrimidin-1-yl)cyclohexyl]methyl}pyrrolidin-2-yl)methanol], the IC50 on JAK2 was 0.18 µM; on Tyk2, > 1 µM; on JAK3 (ATP 100 μM), > 1 µM; on JAK1 it was 0.046 µM.
Regarding `CC1CC1NC[C@H]1CC[C@H](c2nnn3cnc4[nH]ccc4c23)CC1` (stereo partly drawn) [compound 291, N-{[trans-4-(7H-pyrrolo[3,2-e][1,2,3]triazolo[1,5-c]pyrimidin-1-yl)cyclohexyl]methyl}-2-methylcyclopropanamine], the half-inhibitory concentration (IC50) on JAK2 worked out at 0.1 µM; on Tyk2, 0.14 µM; at JAK3 (ATP 100 μM), 0.67 µM; against JAK1, 0.0053 µM.
In the case of `N#CC=C1CCC(c2nnn3cnc4[nH]ccc4c23)CC1` (stereo not drawn) [compound 434, 2-[4-(7H-pyrrolo[3,2-e][1,2,3]triazolo[1,5-c]pyrimidin-1-yl)cyclohexylidene]acetonitrile], the concentration for half-maximal inhibition (IC50) on JAK2 was 0.014 µM; at Tyk2, 0.034 µM; against JAK3 (ATP 100 μM) it was 0.49 µM; at JAK1 it was 0.0023 µM.
